In brackets after ≈: the same amount, converted by molar mass.
Experiments:
[1] = system: KB; experiment: cells; format: ADME, cell-based; settings: Homo sapiens
Description: Cytotoxicity against human KB cells

[2] = system: Plasmodium falciparum; experiment: microbe, parasite or virus in culture; format: functional, organism-based; settings: D6
Description: Antiplasmodial activity against Plasmodium falciparum D6

[3] = Selectivity index, ratio of IC50 for human KB cells to IC50 for Plasmodium falciparum D6; format: toxicity, cell-based; settings: read-out: Ratio IC50
[4] = system: Plasmodium falciparum; experiment: microbe, parasite or virus in culture; format: functional, organism-based; settings: W2
Description: Antiplasmodial activity against Plasmodium falciparum W2

[5] = Selectivity index, ratio of IC50 for human KB cells to IC50 for Plasmodium falciparum W2; format: toxicity, cell-based; settings: read-out: Ratio IC50

| Compound | IC50 [1] [µg/mL] | IC50 [2] [µg/mL] | IC50 [4] [µg/mL] | selectivity ratio [3] | selectivity ratio [5] |
| --- | --- | --- | --- | --- | --- |
| C[C@H]1C[C@H]2CC(C)(C)CC3=CC[C@H]4[C@@H]([C@@H]1CC[C@]4(C)C#N)[C@@H]32 | > 20 | 0.0849 (≈ 0.285 µM) | 0.0284 (≈ 0.0955 µM) | > 240 | > 700 |
| C=C[C@H]1CN2CC[C@H]1C[C@H]2[C@H](O)c1ccnc2ccc(OC)cc12 [QUININE] | > 20 |  | 0.0546 (≈ 0.168 µM) | > 1800 | > 370 |
| C[C@@H]1C[C@@H]2C[C@H](C)[C@H]3CC[C@](C)(C#N)[C@H]4CC[C@@H]([C@@H]2[C@H]34)[C@]1(C)N=C=O | 4.3 (≈ 12.6 µM) | 0.0032 (≈ 0.0094 µM) | 0.0025 (≈ 0.00734 µM) | 1340 | 1710 |
| COc1ccc(CO)cc1 | > 20 | > 10 | > 10 |  |  |
| CC(C)=CCC[C@@H](C)[C@H]1CC[C@](C)(N=C=S)[C@H]2CCC(C)=C[C@H]12 | > 20 | > 10 | > 10 |  |  |
| C=C1CC[C@H]2[C@H]3[C@H](CC[C@]2(C)C#N)[C@@H](C)C[C@@H](CC(C)(C)N=C=S)[C@H]13 | > 20 | 0.47 (≈ 1.32 µM) | 0.109 (≈ 0.306 µM) | > 42.6 | > 183 |
| O=Cc1ccc(O)cc1 [4-HYDROXYBENZALDEHYDE] | > 20 | 7.33 (≈ 60 µM) | 5.56 (≈ 45.5 µM) | > 2.7 | > 3.6 |
| C=C1CC[C@H]2[C@H]3[C@H](CC[C@]2(C)C#N)[C@@H](C)C[C@H](C=C(C)C)[C@H]13 | 3.2 (≈ 10.8 µM) | 0.0141 (≈ 0.0474 µM) | 0.0093 (≈ 0.0313 µM) | 230 | 340 |
| OC(c1cc(C(F)(F)F)nc2c(C(F)(F)F)cccc12)C1CCCCN1 (stereo not drawn) [MEFLOQUINE] |  |  |  | 490 | 970 |
| [C-]#[N+][C@]1(C)[C@H](C)C[C@@H]2C[C@H](C)[C@H]3CC[C@](C)([N+]#[C-])[C@H]4CC[C@H]1[C@@H]2[C@H]34 [DIISOCYANOADOCIANE] | 4.7 (≈ 14.5 µM) |  | 0.0043 (≈ 0.0133 µM) | 1000 | 1100 |
| C[C@@H]1CC[C@H]2[C@@H](C)C(=O)O[C@@H]3O[C@@]4(C)CC[C@@H]1[C@]32OO4 [ARTEMISININ] | > 20 |  | 0.0021 (≈ 0.00744 µM) |  |  |

More lines, main results first:

| IC50 [1] [µg/mL] | IC50 [2] [µg/mL] | IC50 [4] [µg/mL] | Compound | selectivity ratio [3] | selectivity ratio [5] |
| --- | --- | --- | --- | --- | --- |
| 14.5 (≈ 48.7 µM) | 0.0741 (≈ 0.249 µM) | 0.0238 (≈ 0.08 µM) | C[C@H]1C[C@H]2CC(C)(C)C=C3CC[C@H]4[C@@H]([C@@H]1CC[C@]4(C)C#N)[C@@H]32 | 200 | 610 |
| > 20 | > 10 | > 10 | C=C(C)C1CC[C@@H]2[C@H]3CCC(C)[C@H]3[C@H]12 (stereo partly drawn) |  |  |
| 5.3 (≈ 15.3 µM) | 0.797 (≈ 2.31 µM) | 0.423 (≈ 1.22 µM) | C=C1CC[C@H]2[C@H]3[C@H](CC[C@]2(C)N=C=S)[C@@H](C)C[C@H](C=C(C)C)[C@]13O | 6.6 | 12 |
| 15.2 (≈ 51.1 µM) | 0.0585 (≈ 0.197 µM) | 0.0256 (≈ 0.0861 µM) | CC(C)=C[C@H]1C[C@H](C)[C@H]2CC[C@](C)(C#N)[C@H]3CCC(C)=C1[C@H]23 | 260 | 590 |
| > 20 | 0.52 (≈ 1.75 µM) | 0.242 (≈ 0.813 µM) | C=C(C)C[C@@H]1C[C@H](C)[C@H]2CC[C@](C)(C#N)[C@H]3CCC(=C)[C@@H]1[C@H]23 | > 38.5 | > 82.6 |
| > 20 | > 10 | > 10 | C=C(C)C1[C@@H]2C(C)CC[C@@H]2[C@@]2(C)CC[C@@H]12 (stereo partly drawn) |  |  |
| > 20 | 0.302 (≈ 1.02 µM) | 0.133 (≈ 0.447 µM) | CC(C)=C[C@@H]1C[C@H](C)[C@H]2CC[C@](C)(C#N)[C@H]3CC=C(C)[C@@H]1[C@H]23 | > 66.2 | > 150 |
| 19.1 (≈ 64.2 µM) | 0.09 (≈ 0.303 µM) | 0.0297 (≈ 0.0998 µM) | C=C(C)/C=C/[C@]12C[C@H](C)[C@H]3CC[C@](C)(C#N)[C@@H](CC[C@H]1C)[C@@H]32 | 210 | 640 |
| > 20 | > 10 | 8.46 (≈ 41.4 µM) | C=C(C)[C@@H]1C=C2C(C)CC[C@@H]2C(C)CC1 (stereo partly drawn) |  | > 2.3 |
| 2 (≈ 5.87 µM) | 0.0749 (≈ 0.22 µM) | 0.0561 (≈ 0.165 µM) | C[C@@H]1C[C@@H]2C[C@H](C)[C@H]3CC[C@](C)(N=C=O)[C@H]4CC[C@@H]([C@@H]2[C@H]34)[C@]1(C)C#N | 27 | 36 |
| 1.6 (≈ 4.49 µM) | 0.0451 (≈ 0.126 µM) | 0.0285 (≈ 0.0799 µM) | C[C@@H]1C[C@@H]2C[C@H](C)[C@H]3CC[C@](C)(N=C=S)[C@H]4CC[C@@H]([C@@H]2[C@H]34)[C@]1(C)C#N | 35 | 56 |
| 18.2 (≈ 61.2 µM) | 0.0625 (≈ 0.21 µM) | 0.0195 (≈ 0.0655 µM) | CC1=C[C@@H]2C[C@H](C)[C@H]3CC[C@](C)(C#N)[C@H]4CC[C@@H]([C@@H]2[C@H]34)[C@@H]1C | 290 | 930 |

Source: ChEMBL document CHEMBL1158252, “Antimalarial activity: the search for marine-derived natural products with selective antimalarial activity” (J Nat Prod, 1996)
